From patent publication US20200397894A1, “COMPOSITIONS AND METHODS FOR TREATING CANCER” (University of Virginia Patent Foundation, priority 2016, published 2020)

Key:
DM93 cells [1] = test: Clonogenic survival assay; assay type: cell-based, human
Method: (§1) Cell survival following CDT2 depletion or pevonedistat treatment was assessed by clonogenic survival assay, preformed in triplicates. 72 hours following transfection with si-GL2 or si-CDT2, cells were trypsinized, counted, and seeded in 60 mm dishes. For pevonedistat treatments, cells were counted and seeded in 60 mm dishes and treated 24 hours later with various doses of pevonedistat or with DMSO. Cells were cultured for two weeks and were subsequently washed in cold PBS, fixed in cold methanol for 10 minutes, and stained with crystal violet (0.5%) for 10 minutes. Plates were washed with water, dried, and pictures were captured using IMAGE LAB™ software (BioRad Laboratories, Inc., Hercules, Calif., United States of America). Quantification of colonies was performed using QUANTITY ONE® software (BioRad Laboratories, Inc., Hercules, Calif., United States of America). Results are represented as mean±s.e.m. of triplicates normalized to the corresponding DMSO-treated or si-GL2 transfected controls.

VMM39 cells = test: Clonogenic survival assay; assay type: cell-based, human
Method: as §1

[2] = tested on: PIG3V or PIG1 immortalized but not malignant melanocytic cell lines; test: Proliferation of immortalized non-malignant melanocytic cell lines; assay type: cell-based; conditions: Homo sapiens
[3] = tested on: hTERT-transformed keratonocytes (OKF6-TERT2); test: Rereplication by FACS in control keratinocytes; assay type: cell-based, human
Method: The effect of pevonedistat treatment or CDT2, geminin, or EMI1 knockdown on the cell cycle (and induction of DNA rereplication) was assessed by flow cytometry with propidium iodide (PI) staining. Cells were harvested at 72 or 96 hours post-treatment with pevonedistat or post-transfection, respectively. Cells were collected, washed with PBS, and resuspended in ethanol (75%). Cells were subsequently treated with 20 μg of DNase-free RNase and stained with PI following the manufacturer's protocol. FACSCAN™ (Becton, Dickinson and Company, Franklin Lakes, N.J., United States of America) was used to analyze the samples and G0-G1, S, and G2-M fractions were segmented. Subsequent analysis using FLOWJO® (FLOWJO, LLC, Ashland, Oreg., United States of America) and ModFit (Verity Software House, Topsham, Me., United States of America) software was used to determine apoptotic and re-replicating fractions. Where indicated, Cal27 and FaDu cells were treated with pevonedistat for 48 hours and pulsed with BrdU (10 nM) for 1 hour in the dark prior to harvesting. […] Sampled were analyzed on a FACSCAN™ (Becton, Dickinson and Company, Franklin Lakes, N.J., United States of America), and different fractions of BrdU positive cells were determined using FLOWJO® (FLOWJO, LLC, Ashland, Oreg., United States of America) and ModFit (Verity Software House, Topsham, Me., United States of America) software.

Cal27 xenografts = test: HNSCC flank xenograft in nude mice; assay type: in vivo
Method: The animal studies were conducted in accordance with the guidelines established by the University of Virginia Animal Care and Use Committee (ACUC). The effect of pevonedistat on tumor growth was tested in a flank HNSCC xenograft model. 4-5 weeks old Foxn1^nu athymic female nude immunodeficient mice (20-25 g body weight; Harlan Laboratories, now Envigo, Indianapolis, Ind., United States of America) were used. Pevonedistat was prepared in 10% DMSO containing PBS and filtered before use. 5×10^6 Cal27 cells (suspended in 200 μl sterile PBS) were inoculated subcutaneously in both flanks of nude mice (8 mice per group). When the tumor size reached 100 mm^3 (10 days post-inoculation), mice were randomized and were treated with pevonedistat (20 mg/kg), or with control vehicle (DMSO), administered intraperitoneally on a regimen of 5 days on/5 days off for 2 cycles (Tardat et al., 2010). Tumors from a third group of mice were exposed to 1Gy irradiation (IR) daily, 5 days/week for 3 weeks, and a fourth group of mice received both pevonedistat and IR treatments. Tumor irradiation was performed at the University of Virginia X-Ray facility, and only the tumors on both flanks were irradiated while the rest of animal body was shielded. For combination treatment, pevonedistat was given 2 hours prior to radiation exposure with the same schedule as for the individual treatments. Tumor growth was monitored every other day using an electronic caliper, for 3 weeks post-treatment and average of tumor volumes were calculated using the formula (L×W^2)/2). The results are represented as the mean tumor volumes±s.e.m, and p<0.05 was considered significant.

DM93 cells [4] = test: Senescence-associated β-galactosidase assay; assay type: cell-based, human; conditions: DM93, pevonedistat, as early as 48 hours post-treatment
Method: Senescence was monitored using β-galactosidase (β-gal) staining. Following the various treatments, cells were washed twice with PBS, fixed with 2% formaldehyde/0.2% gluteraldehyde in PBS for 15 minutes at room temperature, and washed twice with PBS. The cells were stained with fresh X-Gal solution (1 mg/ml X-gal, 40 mM C6H8O7.H2O, 5 mM K3Fe(CN)6, 5 mM K4Fe(CN)6.3H2O, 150 mM NaCl, and 2 mM MgCl2.6H2O in PBS) for 3-12 hours at 37° C. in the dark. Cells were washed three times in PBS and fixed with 100% methanol for 5 minutes at room temperature. Bright field blue color images were taken with an AMG EVOS® XL Core Imager/camera microscope (Life Technologies, Inc., Carlsbad, Calif., United States of America) counting at least 100 cells from at least 3 fields.

## NS(=O)(=O)OCC1CC(n2ccc3c(NC4CCc5ccccc54)ncnc32)CC1O [pevonedistat, ((1S,2S,4R)-4-(4-((1S)-2,3-Dihydro-H-inden-1-ylamino)-7H-pyrrolo(2,3-d)pyrimidin-7-yl)-2-hydroxycyclopentyl)methyl sulphamate]
DM93 cells [1]
  drug concentration inhibiting proliferation (clonogenic survival): 100 nM
VMM39 cells
  drug concentration inhibiting proliferation (clonogenic survival): 50 nM
[2]
  IC50: > 500 nM
[3]
  DNA rereplication: not observed
Cal27 xenografts; 20 mg/kg IP, p=0.0211
  growth of Cal27 xenografts: significantly suppressed
Cal27 xenografts; 20 mg/kg pevonedistat plus 1 Gy IR daily, p=2×10^−3 vs. control
  growth of Cal27 xenografts, combined treatment with IR: more suppression than either treatment alone
Cal27 xenografts; nude mice, 20 mg/kg IP, 5 days on/5 days off, two cycles
  tolerability: well tolerated
Cal27 xenografts; weighed once a week during the entire experiment
  effect on mouse weight: no significant effect
DM93 cells [4]
  senescence: majority of cells underwent senescence
